Experimental findings from US11779559B2, “Compositions for treating fungal and bacterial biofilms and methods of using the same” (priority 2017, dated 2023) are described below.

One data set relates to fungal biofilms. The data set is described as follows: Biofilm assays (sustained inhibition and/or disruption), fungal biofilms. In kind it is cell-based. As to conditions: in at least one of the two biofilm assays; for Anti-biofilm effect against fungal biofilms (reduction): administered individually. Here is the method:
(§1) Two types of biofilm assays were performed: a sustained inhibition assay and a disruption assay. The sustained inhibition assay assesses the compound's ability to prevent biofilm development throughout all stages of biofilm formation, while the disruption assay assesses the compound's ability to break up an existing mature biofilm. These assays are described in detail in the following article: Lohse, M. B., Gulati, M., Valle Arevalo, A., Fishburn, A., Johnson, A. D., and Nobile, C. J. (2017) Assessment and optimizations of Candida albicans in vitro biofilm assays. Antimicrobial Agents and Chemotherapy 61: e02749-16.
(§2) For fungal biofilm assays, all solutions were prepared in RPMI 1640 medium. All bacterial biofilm solutions were prepared in Trypic Soy Broth (TSB), supplemented with 1% glucose (henceforth referred to as TSB-G). All subsequent procedures were performed in a manner that maintained sterility. A solution of each amino acid to be tested was prepared in weight to volume concentrations ranging from 0.1-5.0%. Amino acids were also tested in combinations. Compound solutions were homogenized with gentle agitation in the dark (4° C., 24 hours) before use.
(§3) All biofilm assays were performed using 384-well non-tissue culture treated polystyrene plates. The fungal species tested are as follows: Candida albicans, Candida guilhermondii, Candida parapsilosis, Candida glabrata, Candida tropicalis, Candida dubliniensis, and Candida auris. The bacterial species tested are as follows: Staphylococcus aureus (standard wild type and methicillin-resistant strain USA300), Escherichia coli, Pseudomonas aeruginosa and Staphylococcus epidermidis.
(§4) Fungal strains were streaked on Yeast Peptone Dextrose (YPD) agar plates and incubated at 30° C. for 48 hours. A single colony from each strain to be tested was inoculated into YPD broth and grown for 12 hours, at 30° C., shaking at 225 rpm. For the fungal biofilm inhibition assay, 1 μl of saturated overnight cell culture was added to either 80 μL of RPMI-1640 or RPMI-1640 supplemented with the amino acid compound solution to be tested, in a 384-well plate. The cells were allowed to adhere to the plate for 90 minutes at 37° C. with shaking (350 rpm). Loosely bound cells were washed once with phosphate buffered saline (PBS) and 80 ul of RPMI-1640, or RPMI-1640 supplemented with the amino acid compound solution was added to the plate. The plate was further incubated for 24 hours at 37° C. with shaking (350 rpm). Media was carefully aspirated and the biofilm was measured by optical density at 600 nm. Twelve replicates were performed for each tested condition and the reported values are normalized to the control (RPMI-1640 media only). For the fungal biofilm disruption assays, 80 μL of RPMI-1640 was added to the plate, along with 1 μL of overnight cell culture. The cells were allowed to adhere to the plate for 90 minutes at 37° C. with shaking (350 rpm). Loosely bound cells were washed once with PBS and 80 μL of RPMI-1640 was added to the plate. The plate was further incubated for 24 hours at 37° C. with shaking (350 rpm). Media was carefully aspirated from the mature biofilm and 80 μL of RPMI-1640, or RPMI-1640 supplemented with the amino acid compound solution to be tested, was gently added to the plate. The plate was further incubated for 24 hours at 37° C. with shaking (350 rpm). Media was carefully aspirated and the biofilm was measured by optical density at 600 nm. Twelve replicates were performed for each tested condition and the reported values are normalized to the control (RPMI-1640 media only).

Data set [1] has as its system S. aureus. The data set is described as follows: Disruption biofilm assay, bacterial. The data set is classed as cell-based, Staphylococcus aureus. The settings on record: Staphylococcus aureus; for inhibition at 1 %: 24 h, read-out: Reduce B Biofilm. As to the method:
(§5) Two types of biofilm assays were performed: a sustained inhibition assay and a disruption assay. The sustained inhibition assay assesses the compound's ability to prevent biofilm development throughout all stages of biofilm formation, while the disruption assay assesses the compound's ability to break up an existing mature biofilm. These assays are described in detail in the following article: Lohse, M. B., Gulati, M., Valle Arevalo, A., Fishburn, A., Johnson, A. D., and Nobile, C. […] Antimicrobial Agents and Chemotherapy 61: e02749-16.
(§6) All bacterial biofilm solutions were prepared in Trypic Soy Broth (TSB), supplemented with 1% glucose (henceforth referred to as TSB-G). All subsequent procedures were performed in a manner that maintained sterility. A solution of each amino acid to be tested was prepared in weight to volume concentrations ranging from 0.1-5.0%. Amino acids were also tested in combinations. Compound solutions were homogenized with gentle agitation in the dark (4° C., 24 hours) before use.
(§7) Bacterial strains were streaked on Blood Agar plates (5% sheep blood in Tryptic Soy Agar) and incubated at 37° C. for 24 hours. A single colony from each strain to be tested was inoculated in a TSB broth and grown for 12 hours, at 37° C. with shaking (225 rpm). For the bacterial biofilm inhibition assays, 1 μL of saturated overnight cell culture was added to either 80 μL of TSB-G, or TSB-G supplemented with the amino acid compound solution to be tested, in a 384-well plate. The cells were allowed to adhere to the plate for 60 minutes at 37° C. without shaking. The media was carefully aspirated and 80 μL of TSB-G, or TSB-G supplemented with the amino acid compound solution was added to the plate. The plate was further incubated for 24 hours at 37° C. without shaking. Media was carefully aspirated and the biofilm was measured by optical density at 600 nm. Eight or twelve replicates were performed for each tested condition and the reported values are normalized to the control (TSB-G media only). For the bacterial biofilm disruption assays, 80 μL of TSB-G was added to the plate, along with 1 μL of overnight cell culture. The cells were allowed to adhere to the plate for 60 minutes at 37° C. with no shaking. The media was carefully aspirated and 80 μL of TSB-G was added to the plate. The plate was further incubated for 24 hours at 37° C. with no shaking. Media was carefully aspirated from the mature biofilm and 80 μL of TSB-G, or TSB-G supplemented with the amino acid to be tested, was gently added to the plate. The plate was further incubated for 24 hours at 37° C. without shaking. Media was aspirated and the biofilm was measured by optical density at 600 nm. Twelve replicates were performed for each tested condition and the reported values are normalized to the control (TSB-G media only).

For data set [2], the system named is C. albicans. Put plainly: Sustained inhibition biofilm assay, fungal. In kind it is cell-based, Candida albicans. As to the method:
as §5, §6
(§8) Fungal strains were streaked on Yeast Peptone Dextrose (YPD) agar plates and incubated at 30° C. for 48 hours. A single colony from each strain to be tested was inoculated into YPD broth and grown for 12 hours, at 30° C., shaking at 225 rpm. […] The cells were allowed to adhere to the plate for 90 minutes at 37° C. with shaking (350 rpm). […] The plate was further incubated for 24 hours at 37° C. with shaking (350 rpm). Media was carefully aspirated and the biofilm was measured by optical density at 600 nm. […] The cells were allowed to adhere to the plate for 90 minutes at 37° C. with shaking (350 rpm). […] The plate was further incubated for 24 hours at 37° C. with shaking (350 rpm). […] The plate was further incubated for 24 hours at 37° C. with shaking (350 rpm). Media was carefully aspirated and the biofilm was measured by optical density at 600 nm.

In data set [3] the test system is C. albicans. The data set is described as follows: Disruption biofilm assay, fungal. In kind it is cell-based, Candida albicans. As to the method:
as §5, §6, §8

Data set [4] concerns bacteria (S. aureus) biofilm and fungal (C. albicans) biofilm. The data set is described as follows: Disruption biofilm assay, bacterial and fungal taken together. The data set is classed as cell-based. Here is the method: as §1, §2
(§9) Fungal strains were streaked on Yeast Peptone Dextrose (YPD) agar plates and incubated at 30° C. for 48 hours. A single colony from each strain to be tested was inoculated into YPD broth and grown for 12 hours, at 30° C., shaking at 225 rpm. For the fungal biofilm inhibition assay, 1 μl of saturated overnight cell culture was added to either 80 μL of RPMI-1640 or RPMI-1640 supplemented with the amino acid compound solution to be tested, in a 384-well plate. […] Media was carefully aspirated and the biofilm was measured by optical density at 600 nm. […] Media was carefully aspirated and the biofilm was measured by optical density at 600 nm. […]
(§10) Bacterial strains were streaked on Blood Agar plates (5% sheep blood in Tryptic Soy Agar) and incubated at 37° C. for 24 hours. […] Media was carefully aspirated and the biofilm was measured by optical density at 600 nm. […]

The subject of data set [5] is S. aureus. The data set is described as follows: Sustained inhibition biofilm assay, bacterial. In kind it is cell-based, Staphylococcus aureus. Here is the method:
as §5, §6, §7

Data set [6] has as its system bacteria (S. aureus) biofilm and fungal (C. albicans) biofilm. The data set is described as follows: Sustained inhibition biofilm assay, bacterial and fungal taken together. In kind it is cell-based. As to the method:
as §1, §2, §9, §10

For data set [7], the system named is fungal and bacterial biofilms. The data set is described as follows: Biofilm assays (sustained inhibition and disruption), fungal and bacterial biofilms. The data set is classed as cell-based. The settings on record: for Effect on biofilms: single component on its own. Here is the method:
as §1, §2, §3, §4
Bacterial strains were streaked on Blood Agar plates (5% sheep blood in Tryptic Soy Agar) and incubated at 37° C. for 24 hours. A single colony from each strain to be tested was inoculated in a TSB broth and grown for 12 hours, at 37° C. with shaking (225 rpm).

Data set [8] in a line: Thermal stability in hot aqueous solution. The data set is classed as physicochemical. The settings on record: water at about 90° C. to 100° C. The text has this:
This ingredient is the non-essential amino acid glutamine.

Another data set has as its system bacterial biofilms. Put plainly: Biofilm assays (sustained inhibition and/or disruption), bacterial biofilms. As to conditions: in at least one of the two biofilm assays. The data set is classed as cell-based. Here is the method: as §1, §2, §3, §7
[9] abbreviates: disruption assay, S. aureus, 1% amino acid (unless specifically noted), p≤0.001.
Where [10] appears, read: sustained inhibition assay, C. albicans, 1% amino acid (unless specifically noted), p≤0.001.
Where [11] appears, read: disruption assay, C. albicans, 1% amino acid (unless specifically noted), p≤0.001.

Read-outs that look alike come from different tables or passages of the source.

`Cn1cncc1C[C@H](N)C(=O)O` [3-Methylhistidine, 3-methyl-L-histidine]: the “Effect on fungal biofilm growth” value in the data set on fungal biofilms is recorded as “support (improve) fungal biofilm growth”. Also, the inhibition at 1 % in the data set on S. aureus [1] (setting [9]) was in the range of 10 to 30%. For the same molecule, the “Promote F Biofilm” value in the data set on C. albicans [2] (setting [10]) is “● (a single dot [ie. •] signifies minor effect (from about 10 to about 30% change))”.
With `N[C@@H](CS)C(=O)O` [Cysteine, L-cysteine], the “Reduce F Biofilm” value in the data set with C. albicans [3] (setting [11]) and with C. albicans [2] (setting [10]) was “●● (two dots [ie. ••] signifies major effect (greater than about 30% change))” throughout. In the data set with S. aureus [1] (setting [9]), the inhibition at 1 % is over 30%. Further, the “Reduce Both” value was “●● (two dots [ie. ••] signifies major effect (greater than about 30% change))” in data set [4] (disruption assay, bacterial and fungal biofilm, 1% amino acid (unless specifically noted), p≤0.001); “●● (two dots [ie. ••] signifies major effect (greater than about 30% change))” in data set [6] (sustained inhibition assay, bacterial and fungal biofilm, 1% amino acid (unless specifically noted), p≤0.001). Also, the “Reduce B Biofilm” value in the data set with S. aureus [5] (sustained inhibition assay, S. aureus, 1% amino acid (unless specifically noted), p≤0.001) was “●● (two dots [ie. ••] signifies major effect (greater than about 30% change))”.
Consider `NCCO` [Ethanolamine, ethanolamine], for which the “Anti-biofilm effect against fungal biofilms (reduction)” value (shortened to “Anti-biofilm effect … (reduction)”) in the data set with fungal biofilms is reported as “less than twofold”. In the data set on C. albicans [2] (setting [10]), the “Reduce F Biofilm” value is “● (a single dot [ie. •] signifies minor effect (from about 10 to about 30% change))”.
In the case of `N[C@@H](CCC(=O)O)C(=O)O` [Glutamic Acid, L-glutamic acid], the “Reduce F Biofilm” value in the data set on C. albicans [3] and in the data set with C. albicans [2] was “●● (two dots [ie. ••] signifies major effect (greater than about 30% change))” throughout. The inhibition at 1 % in the data set with S. aureus [1] was over 30%. In addition, the “Reduce Both” value in data set [4] and in data set [6] was “●● (two dots [ie. ••] signifies major effect (greater than about 30% change))” throughout. The Effect on biofilms entry in data set [7] was “very active against biofilms”. For the same molecule, the “Reduce B Biofilm” value in the data set on S. aureus [5] was “●● (two dots [ie. ••] signifies major effect (greater than about 30% change))”.
Regarding `NC(=O)CC[C@H](N)C(=O)O` [Glutamine, L-glutamine], the “Effect on bacterial or fungal biofilms in both assays” value in data set [7] (sustained inhibition and disruption) is “neutral”. In data set [8], the “Thermal degradation in aqueous solution” value is “highly susceptible to thermal degradation”.
As to `N[C@@H](CCS)C(=O)O` [Homocysteine (0.4%), L-homocysteine], in the data set on fungal biofilms, the “Anti-biofilm effect … (reduction)” value is reported as “less than twofold”.
As for `N[C@@H](COP(=O)(O)O)C(=O)O` [Phosphoserine, O-phospho-L-serine], in the data set with fungal biofilms, the “Anti-biofilm effect … (reduction)” value is given as “less than twofold”. Moreover, the “Reduce F Biofilm” value with C. albicans [3] (setting [11]) is “● (a single dot [ie. •] signifies minor effect (from about 10 to about 30% change))”. The inhibition at 1 % in the data set on S. aureus [1] (setting [9]) fell in the range of 10 to 30%.
In the case of `O=C(O)[C@@H]1CCCN1` [Proline, L-proline], the “Anti-biofilm effect … (reduction)” value in the data set with fungal biofilms is reported as “less than twofold”. Besides, the “Reduce F Biofilm” value in the data set with C. albicans [3] (setting [11]) is “● (a single dot [ie. •] signifies minor effect (from about 10 to about 30% change))”. In addition, the activation at 1 % in the data set on S. aureus [1] (disruption assay, S. aureus, 1% amino acid (unless specifically noted), p≤0.001, read-out: Promote B Biofilm) is 10 to 30%. The “Effect on bacterial biofilm growth” value in the data set on bacterial biofilms is “support (improve) bacterial biofilm growth”.
Consider `CC(C)[C@H](N)C(=O)O` [Valine, L-valine], for which the “Effect on fungal biofilm growth” value with fungal biofilms was “support (improve) fungal biofilm growth”. For the same molecule, the inhibition at 1 % with S. aureus [1] (setting [9]) fell in the range of 10 to 30%. The “Promote F Biofilm” value in the data set on C. albicans [2] (setting [10]) is “● (a single dot [ie. •] signifies minor effect (from about 10 to about 30% change))”.
`OCC(O)CO` [glycerol]: in [7], the Effect on biofilms result is “not found to have antibiofilm effects”.
